For one series, the system named is Caco-2 cell membranes. More on the design: method as in PROTAC-DB 3.0. The settings on record: Caco-2 A-to-B; as recorded in PROTAC-DB 3.0; ref PROTAC-DB 3.0; cited from earlier work.
For another series, the system named is Caco-2 cells. Briefly: Caco-2 cell membrane permeability study (transcellular transport, A-to-B). The series is classed as in vitro ADME. The conditions noted are these: Caco-2, A-to-B. As to the method: (§1) KT-474 (Catalog No. E1655), NX-2127 (Catalog No. E1381), MS4078 (Catalog No. S0072), dBET6 (Catalog No. S8762), and dBET57 (Catalog No. S0137) were purchased from Selleck Chemicals (Houston, TX, USA). […] The Caco-2 cell permeability assay using these PROTACs was outsourced to Axcelead Drug Discovery Partners, Inc. (Kanagawa, Japan). Caco-2 cells (American Type Culture Collection, Manassas, VA, USA) were cultured, and a transcellular transport study was performed. The cells were cultured in Transwell 96-well permeable support (pore size 0.4 μm, 0.11 cm^2 surface area) with a polycarbonate membrane (PSHT004S5, Millipore Corporation, Bedford, MA, USA). The cells were preincubated with bovine serum albumin (BSA)-free Hank’s balanced salt solution (HBSS) in the apical compartment (75 μL) and HBSS containing 4% BSA in the basal compartment (250 μL) for 10 min at 37 °C. Subsequently, transcellular transport was initiated by the addition of BSA-free HBSS to apical compartments containing 10 μM compounds. The assay was terminated by separating each assay plate after 2 h. Aliquots (50 μL) from the basolateral compartment were mixed with acetonitrile/methanol. After centrifugation, the compound concentrations in the supernatant were measured using liquid chromatography-tandem mass spectrometry (LC–MS/MS) and a Kinetex C18 column (2.6 μm, 2.1 × 30 mm). The apparent permeabilities (P app, AtoB) of the receivers were determined. Lucifer yellow was added onto the apical compartment at a concentration of 100 μM. The P app of lucifer yellow in the wells where each test compound was evaluated was reported. The P app value of each compound in the membrane permeability test was calculated from a one-point standard curve (0.1 μM) using the following equation. Papp=C×V/T×A×C0 where C (μM) is the concentration of the test compound on the basal side after incubation (measured value); V (mL) is the volume of the basolateral compartment (0.25 mL); T (s) is the permeation experiment time (7200 s); A (cm^2) is the membrane area (0.11 cm^2); and C0 (μM) is the concentration of test compound (measured value).
(Caco-2 monolayers are a common model of the intestinal barrier.)

Assay in series [1]: as above
It counts as in vitro ADME. The conditions noted are these: human; Caco-2, apical to basal, 10 μM compound, 2 h, 37 °C, 4% BSA in basal compartment; read-out: Ex. value, cell membrane permeability (Papp, AtoB). As to the method:
as §1

For `Cc1sc2c(c1C)C(c1ccc(Cl)cc1)=NC(CC(=O)NCc1cn(CCCCNC(=O)COc3ccc(C4CCC(=O)NC4=O)cc3)nn1)c1nnc(C)n1-2` (stereo not drawn) [Compound 2895], in the series on Caco-2 cell membranes, the “experimental value of the cell membrane permeability” value is 2.14 μcm/s.

Turning to `Cn1c(=O)n(C2CCC(=O)NC2=O)c2cccc(C#CCOC3CCN(C[C@H]4CC[C@H](n5cc(NC(=O)c6cnn7ccc(N8C[C@H]9C[C@@H]8CO9)nc67)c(C(F)F)n5)CC4)CC3)c21` (stereo partly drawn) [KT-474], the “cell membrane permeability, result in words” value with Caco-2 cells is reported as “relatively high cell membrane permeability”. Further, the Papp A→B at 2 h, 10 μM in series [1] was 12.6 nm/s.

`Cc1cc(Nc2ncc(Cl)c(Nc3ccccc3S(=O)(=O)C(C)C)n2)c(OC(C)C)cc1C1CCN(CC(=O)NCCNc2cccc3c2C(=O)N(C2CCC(=O)NC2=O)C3=O)CC1` (stereo not drawn) [MS4078]: the Papp A→B at 2 h, 10 μM in series [1] was 0.6 nm/s. On the same count and under the same terms, the figure for `NC(=O)c1ncc(N2CCCCC2)nc1Nc1ccc(C2CCN(C[C@H]3CCN(c4ccc5c(c4)C(=O)N(C4CCC(=O)NC4=O)C5=O)C3)CC2)cc1` (stereo partly drawn) [NX-2127] is 1.1 nm/s. As for `Cc1sc2c(c1C)C(c1ccc(Cl)cc1)=NC(CC(=O)NCCCCCCCCNC(=O)COc1cccc3c1C(=O)N(C1CCC(=O)NC1=O)C3=O)c1nnc(C)n1-2` (stereo not drawn) [dBET6], the “cell membrane permeability, result in words” value in the series on Caco-2 cells is reported as “relatively high cell membrane permeability”. In series [1], the Papp A→B at 2 h, 10 μM turned out to be 9.9 nm/s. Consider `Cc1sc2c(c1C)C(c1ccc(Cl)cc1)=NC(CC(=O)NCCNc1cccc3c1C(=O)N(C1CCC(=O)NC1=O)C3=O)c1nnc(C)n1-2` (stereo not drawn) [dBET57], for which the “cell membrane permeability, result in words” value in the series with Caco-2 cells is given as “relatively high cell membrane permeability”. Besides, the Papp A→B at 2 h, 10 μM in series [1] was 5.2 nm/s.

(Values after publication PMC12933330, “Data-Driven Design of PROTAC Linkers to Improve PROTAC Cell Membrane Permeability” (JACS Au, 2026).)
